Experiments:
[1] = test system: Lactobacillus; conditions: previously shown; cited from earlier work
[2] = test system: human cervical epithelium; assay: Histological evaluation of excised human cervical tissue ex vivo (Franz diffusion cell); conditions: 2% polysorbate 80 (data not shown)

| Compound | toxicity of preservatives to Lactobacillus [1] | histological changes in human cervical epithelium [2] |
| --- | --- | --- |
| COC(=O)c1ccc(O)cc1 [methylparaben] | nontoxic |  |
| CCCOC(=O)c1ccc(O)cc1 [propylparaben] | nontoxic |  |
| polysorbate 80 |  | Severe shedding of the epithelial layers |

Reference: patent publication US20050095281A1, “Liposomal formulations and methods of use” (OPTIME Therapeutics, Inc., priority 2003, published 2005)
